Assay [1] deals with Mycobacterium tuberculosis H37Rv CNCTC My 331/88 (ATCC 27294). Put plainly: Antimycobacterial microdilution MABA, M. tuberculosis. The settings on record: Middlebrook 7H9 with OADC growth supplement, pH = 6.6, MABA. It counts as cell-based. (Dilution methods test growth across graded concentrations, often in twofold steps.)
The subject of assay [2] is M. kansasii CNCTC My 235/80 (ATCC 12478). Put plainly: Antimycobacterial microdilution MABA, M. kansasii. It counts as cell-based, Mycobacterium kansasii.
The subject of assay [3] is M. avium ssp. avium CNCTC My 80/72 (ATCC 15769). Put plainly: Antimycobacterial microdilution MABA, M. avium. It counts as cell-based, Mycobacterium avium. Particulars: Mycobacterium avium, ATCC15769, pH 6.6, read-out: M. avium ATCC 15769 MIC.
Assay [4] has as its system Candida albicans ATCC 44859. Put plainly: Antifungal microdilution broth, CA. It counts as cell-based. The settings on record: Candida albicans, read-out: MIC CA.
For assay [5], the system named is Candida tropicalis 156. Description: Antifungal microdilution broth, CT. It counts as cell-based. Particulars: read-out: MIC CT.
Assay [6] concerns Candida krusei E28. Put plainly: Antifungal microdilution broth, CK. It counts as cell-based. Particulars: Pichia kudriavzevii, read-out: MIC CK.
The subject of assay [7] is Candida glabrata 20/I. Put plainly: Antifungal microdilution broth, CG. It counts as cell-based. Particulars: Nakaseomyces glabratus, 20/I, read-out: MIC CG.
Assay [8] deals with Trichosporon asahii 1188. Put plainly: Antifungal microdilution broth, TA. Particulars: read-out: MIC TA. It counts as cell-based.
In assay [9] the test system is Aspergillus fumigatus 231. Put plainly: Antifungal microdilution broth, AF. It counts as cell-based. Particulars: read-out: MIC AF.
Assay [10] deals with Lichtheimia corymbifera 272. Put plainly: Antifungal microdilution broth, LC. It counts as cell-based. Particulars: read-out: MIC LC.
Assay [11] concerns Trichophyton interdigitale 445. Description: Antifungal microdilution broth, TI. It counts as cell-based. The settings on record: read-out: MIC TI.
Assay [12] concerns Staphylococcus aureus CCM 4516/08. Description: Antibacterial microdilution broth, SA. It counts as cell-based. The settings on record: read-out: MIC SA.
In assay [13] the test system is Staphylococcus aureus H 5996/08 methicillin resistant. Description: microbe, parasite or virus in culture. It counts as cell-based. Particulars: for MIC: Staphylococcus aureus, MRSA, read-out: MIC MRSA.
For assay [14], the system named is Staphylococcus epidermidis H 6966/08. Description: Antibacterial microdilution broth, SE. It counts as cell-based. Particulars: read-out: MIC SE.
Assay [15] relates to Enterococcus sp. J 14365/08. Description: Antibacterial microdilution broth, EF. It counts as cell-based. Particulars: read-out: MIC EF.
Assay [16] relates to Escherichia coli CCM 4517. Description: Antibacterial microdilution broth, EC. It counts as cell-based. Particulars: read-out: MIC EC.
Assay [17] concerns Pseudomonas aeruginosa CCM 1961. Put plainly: Antibacterial microdilution broth, PA. Particulars: read-out: MIC PA. It counts as cell-based.
Assay [18] deals with Mycobacterium smegmatis CCM 4622 (ATCC 607). Put plainly: Antimycobacterial microdilution, M. smegmatis. It counts as cell-based. Particulars: Middlebrook 7H9 with OADC, resazurin.
The mark [19] stands for this setting: Staphylococcus aureus, CCM4516, 24 h.
The mark [20] stands for this setting: Staphylococcus aureus, CCM4516, 48 h.
Setting [21] is: Staphylococcus epidermidis, H6966/08, 24 h.
Where [22] appears, read: Staphylococcus epidermidis, H6966/08, 48 h.
The mark [23] stands for this setting: Enterococcus, SP.J14365/08, 24 h.
Setting [24] is: Enterococcus, SP.J14365/08, 48 h.
Where [25] appears, read: Escherichia coli, CCM4517, 24 h.
Where [26] appears, read: Escherichia coli, CCM4517, 48 h.
Setting [27] is: Pseudomonas aeruginosa, CCM1961, 72 h.
Where [28] appears, read: Pseudomonas aeruginosa, CCM1961, 120 h.

Values after ≈ are worked out from the molar mass of the structure shown. Values joined by “and” are separate entries in the source; they are usually repeats but may differ in a detail not shown here. Equal values may be shown once. Read-outs that look alike come from different tables or passages of the source. Some results are limits rather than exact numbers.

Turning to `NNC(=O)c1ccncc1` [INH, isoniazid, reference compound], the “Mtb H37Rv ATCC 27294 MIC” value in assay [1] lay in the range of 0.1 to 0.39 µg/mL. Also, the MIC in assay [1] (Mycobacterium tuberculosis, read-out: Mtb H37Rv ATCC 27294 MIC) fell in the range of 0.1 to 0.2 µg/mL (≈ 0.729 to 1.46 µM); in assay [2] (Mycobacterium kansasii, ATCC12478, pH 6.6, read-out: M. kans. ATCC 12478 MIC, Middlebrook 7H9 with OADC, pH 6.6, MABA), 3.13 to 12.5 µg/mL (≈ 22.8 to 91.1 µM); in assay [3] it was 6.25 to 12.5 µg/mL (≈ 45.6 to 91.1 µM). In assay [2] (Middlebrook 7H9 with OADC, pH 6.6, MABA), the “M. kans. ATCC 12478 MIC” value lay within 6.25 to 12.5 µg/mL.
Consider `C[C@@H]1[C@H](O)[C@@H](C)/C=C/C=C/C=C/C=C/C=C/C=C/C=C/[C@H](O[C@@H]2O[C@H](C)[C@@H](O)[C@H](N)[C@@H]2O)C[C@@H]2O[C@](O)(C[C@@H](O)C[C@@H](O)[C@H](O)CC[C@@H](O)C[C@@H](O)CC(=O)O[C@H]1C)C[C@H](O)[C@H]2C(=O)O` [AMPB, amphotericin B, reference compound], for which the MIC in [4] (ATCC44859, 24 h) was 0.12 µM (≈ 0.111 µg/mL); in [4] (ATCC44859, 48 h), 0.49 µM (≈ 0.453 µg/mL); in [5] (Candida tropicalis, 156, 24 h) it was 1.95 µM (≈ 1.8 µg/mL); in assay [5] (Candida tropicalis, 156, 48 h), 1.95 µM (≈ 1.8 µg/mL); in assay [6] (E28, 24 h), 1.95 µM (≈ 1.8 µg/mL); in assay [6] (E28, 48 h), 1.95 µM (≈ 1.8 µg/mL). Further, the MIC in assay [7] (24 h) amounted to 0.98 µM (≈ 0.906 µg/mL); in [7] (48 h), 1.95 µM (≈ 1.8 µg/mL); in [8] (Trichosporon asahii, 1188, 24 h), 0.49 µM (≈ 0.453 µg/mL); in assay [8] (Trichosporon asahii, 1188, 48 h), 0.98 µM (≈ 0.906 µg/mL); in assay [9] (Aspergillus fumigatus, 231, 24 h), 1.95 µM (≈ 1.8 µg/mL); in [9] (Aspergillus fumigatus, 231, 48 h), 1.95 µM (≈ 1.8 µg/mL). For the same compound, the MIC came out at 7.81 µM (≈ 7.22 µg/mL) in assay [10] (Lichtheimia corymbifera, 272, 24 h); 7.81 µM (≈ 7.22 µg/mL) in assay [10] (Lichtheimia corymbifera, 272, 48 h); 1.95 µM (≈ 1.8 µg/mL) in assay [11] (Trichophyton interdigitale, 445, 72 h); 1.95 µM (≈ 1.8 µg/mL) in [11] (Trichophyton interdigitale, 445, 120 h).
Turning to `CC1(C)S[C@@H]2[C@H](NC(=O)Cc3ccccc3)C(=O)N2[C@H]1C(=O)O` [Pen, benzylpenicillin, reference compound], the MIC turned out to be 0.24 µM (≈ 0.0803 µg/mL) in [12] (setting [19]); 0.24 µM (≈ 0.0803 µg/mL) in assay [12] (setting [20]); 125 µM (≈ 41.8 µg/mL) in [13] (24 h); 125 µM (≈ 41.8 µg/mL) in assay [13] (48 h); 31.2 µM (≈ 10.4 µg/mL) in assay [14] (setting [21]); 125 µM (≈ 41.8 µg/mL) in assay [14] (setting [22]). In addition, the MIC in [15] (setting [23]) is 7.81 µM (≈ 2.61 µg/mL); in assay [15] (setting [24]), 15.6 µM (≈ 5.22 µg/mL); in assay [16] (setting [25]) it was 125 µM (≈ 41.8 µg/mL); in assay [16] (setting [26]), 125 µM (≈ 41.8 µg/mL); in assay [17] (setting [27]), more than 500 µM; in assay [17] (setting [28]), more than 500 µM.
Regarding `CO[C@H]1/C=C/O[C@@]2(C)Oc3c(C)c(O)c4c(O)c(c(/C=N/N5CCN(C)CC5)c(O)c4c3C2=O)NC(=O)/C(C)=C\C=C\[C@H](C)[C@H](O)[C@@H](C)[C@@H](O)[C@@H](C)[C@H](OC(C)=O)[C@@H]1C` [RFM, rifampicin, reference compound], the “M. smeg. ATCC 607 MIC” value in assay [18] came to 1.56 µg/mL. Further, the MIC in [18] (Mycolicibacterium smegmatis, read-out: M. smeg. ATCC 607 MIC) fell in the range of 0.78 to 1.56 µg/mL (≈ 0.948 to 1.9 µM).
With `CC1(C)S[C@@H]2[C@H](NC(=O)COc3ccccc3)C(=O)N2[C@H]1C(=O)O` [Phen, phenoxymethylpenicillin, reference compound], the MIC in [12] (setting [19]) was 0.24 µM (≈ 0.0841 µg/mL); in [12] (setting [20]) it was 0.24 µM (≈ 0.0841 µg/mL); in assay [13] (24 h), 250 µM (≈ 87.6 µg/mL); in assay [13] (48 h) it was 500 µM (≈ 175 µg/mL); in assay [14] (setting [21]), 62.5 µM (≈ 21.9 µg/mL); in assay [14] (setting [22]), 250 µM (≈ 87.6 µg/mL). Also, the MIC is 7.81 µM (≈ 2.74 µg/mL) in assay [15] (setting [23]); 7.81 µM (≈ 2.74 µg/mL) in assay [15] (setting [24]); more than 500 µM in assay [16] (setting [25]); more than 500 µM in assay [16] (setting [26]); more than 500 µM in [17] (setting [27]); more than 500 µM in [17] (setting [28]).
Turning to `NC[C@@H]1O[C@H](O[C@H]2[C@@H](O)[C@H](O[C@@H]3[C@@H](O)[C@H](N)C[C@H](N)[C@H]3O[C@H]3O[C@H](CN)[C@@H](O)[C@H](O)[C@H]3N)O[C@@H]2CO)[C@H](N)[C@@H](O)[C@@H]1O` [Neom, neomycin, reference compound], the MIC in assay [12] (24 h) is 3.9 µM and 3.90 µM; in assay [12] (48 h), 3.9 µM and 3.90 µM; in assay [14] (24 h) it was 3.9 µM and 3.90 µM; in [14] (48 h), 7.81 µM (≈ 4.8 µg/mL); in assay [15] (24 h) it was 250 µM (≈ 154 µg/mL); in assay [15] (48 h), 250 µM (≈ 154 µg/mL). Moreover, the MIC in assay [16] (24 h) is reported as 0.98 µM (≈ 0.602 µg/mL); in assay [16] (48 h) it was 0.98 µM (≈ 0.602 µg/mL); in [17] (72 h), 7.81 µM (≈ 4.8 µg/mL); in assay [17] (120 h) it was 15.62 µM (≈ 9.6 µg/mL). For the same compound, the “MIC MRSA” value in assay [13] (24 h) and in assay [13] (48 h) was 0.98 µM (≈ 0.602 µg/mL) throughout.
